Assay [1] concerns the target T1, SMARCA4-HiBiT HeLa cells (protein which is expressed from the SMARCA4 gene) (Homo sapiens, UniProt P51532).
T1 construct: protein which is expressed from the SMARCA2 and SMARCA4 genes; host or cells: HeLa (SMARCA4-HiBiT engineered line)
Put plainly: SMARCA4 degradation assay (HiBiT-fusion HeLa cell line, 24 h, luminescence). The class given is cell-based. A digest of the protocol: (§1)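 HiBiT-fusion HeLa lines, 8,000 cells/well, overnight attachment; cpd 10-pt series (typically 10 μM–300 pM), 24 h, 37° C. Lysis with LgBiT + HiBiT substrate, 10 min shaking at RT, luminescence read. DC50 from dose-response fit; % degradation also scored at 1 μM.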

For assay [2], the target named is T2, SMARCA2-HiBiT HeLa cells (protein which is expressed from the SMARCA2 gene) (Homo sapiens, UniProt P51531).
T2 construct: protein which is expressed from the SMARCA2 and SMARCA4 genes; host or cells: HeLa (SMARCA2-HiBiT engineered line)
T2 sequence (P51531 whole entry): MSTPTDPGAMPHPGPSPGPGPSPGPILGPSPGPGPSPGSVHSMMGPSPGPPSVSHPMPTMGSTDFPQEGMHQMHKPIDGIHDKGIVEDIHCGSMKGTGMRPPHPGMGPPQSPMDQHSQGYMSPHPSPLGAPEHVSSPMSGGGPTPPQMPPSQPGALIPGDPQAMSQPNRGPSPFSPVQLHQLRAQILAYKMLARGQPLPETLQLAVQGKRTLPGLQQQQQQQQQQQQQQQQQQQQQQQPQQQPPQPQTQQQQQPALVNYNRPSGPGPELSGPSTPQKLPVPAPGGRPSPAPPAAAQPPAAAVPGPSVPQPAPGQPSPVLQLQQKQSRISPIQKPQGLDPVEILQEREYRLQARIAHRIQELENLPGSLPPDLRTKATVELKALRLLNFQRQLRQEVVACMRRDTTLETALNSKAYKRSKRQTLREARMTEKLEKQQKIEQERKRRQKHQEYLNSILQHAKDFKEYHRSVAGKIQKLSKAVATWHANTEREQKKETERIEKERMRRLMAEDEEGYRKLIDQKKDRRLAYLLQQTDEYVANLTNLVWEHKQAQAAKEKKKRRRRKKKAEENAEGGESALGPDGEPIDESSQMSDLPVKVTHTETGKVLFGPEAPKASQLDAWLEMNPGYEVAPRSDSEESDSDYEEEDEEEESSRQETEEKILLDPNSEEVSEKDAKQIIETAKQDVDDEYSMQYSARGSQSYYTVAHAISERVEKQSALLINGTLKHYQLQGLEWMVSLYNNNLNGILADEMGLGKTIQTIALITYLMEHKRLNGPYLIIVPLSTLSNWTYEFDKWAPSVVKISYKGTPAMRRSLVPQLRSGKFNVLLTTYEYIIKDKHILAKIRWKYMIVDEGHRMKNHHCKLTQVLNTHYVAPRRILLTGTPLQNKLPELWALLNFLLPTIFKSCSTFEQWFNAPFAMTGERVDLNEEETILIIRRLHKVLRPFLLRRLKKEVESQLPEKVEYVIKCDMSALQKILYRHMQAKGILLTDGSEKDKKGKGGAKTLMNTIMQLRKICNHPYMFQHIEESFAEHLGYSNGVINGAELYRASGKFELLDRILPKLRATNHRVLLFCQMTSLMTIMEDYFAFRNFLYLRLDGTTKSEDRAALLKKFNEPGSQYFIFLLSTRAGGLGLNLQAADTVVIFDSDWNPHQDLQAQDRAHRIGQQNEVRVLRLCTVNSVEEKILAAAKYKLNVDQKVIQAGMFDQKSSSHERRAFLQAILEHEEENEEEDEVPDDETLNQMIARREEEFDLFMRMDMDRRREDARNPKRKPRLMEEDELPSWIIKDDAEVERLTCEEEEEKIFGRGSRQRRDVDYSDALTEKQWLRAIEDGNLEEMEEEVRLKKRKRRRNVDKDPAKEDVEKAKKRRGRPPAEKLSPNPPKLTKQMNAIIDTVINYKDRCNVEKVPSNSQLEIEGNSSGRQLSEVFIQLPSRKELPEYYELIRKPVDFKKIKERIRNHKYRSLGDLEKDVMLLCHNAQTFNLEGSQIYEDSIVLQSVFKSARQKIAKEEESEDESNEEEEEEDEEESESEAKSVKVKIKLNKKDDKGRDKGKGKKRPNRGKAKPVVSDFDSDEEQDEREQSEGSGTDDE
Description: SMARCA2 degradation assay (HiBiT-fusion HeLa cell line, 24 h, luminescence). The class given is cell-based. In outline: as §1

T1 sequence (P51532 whole entry): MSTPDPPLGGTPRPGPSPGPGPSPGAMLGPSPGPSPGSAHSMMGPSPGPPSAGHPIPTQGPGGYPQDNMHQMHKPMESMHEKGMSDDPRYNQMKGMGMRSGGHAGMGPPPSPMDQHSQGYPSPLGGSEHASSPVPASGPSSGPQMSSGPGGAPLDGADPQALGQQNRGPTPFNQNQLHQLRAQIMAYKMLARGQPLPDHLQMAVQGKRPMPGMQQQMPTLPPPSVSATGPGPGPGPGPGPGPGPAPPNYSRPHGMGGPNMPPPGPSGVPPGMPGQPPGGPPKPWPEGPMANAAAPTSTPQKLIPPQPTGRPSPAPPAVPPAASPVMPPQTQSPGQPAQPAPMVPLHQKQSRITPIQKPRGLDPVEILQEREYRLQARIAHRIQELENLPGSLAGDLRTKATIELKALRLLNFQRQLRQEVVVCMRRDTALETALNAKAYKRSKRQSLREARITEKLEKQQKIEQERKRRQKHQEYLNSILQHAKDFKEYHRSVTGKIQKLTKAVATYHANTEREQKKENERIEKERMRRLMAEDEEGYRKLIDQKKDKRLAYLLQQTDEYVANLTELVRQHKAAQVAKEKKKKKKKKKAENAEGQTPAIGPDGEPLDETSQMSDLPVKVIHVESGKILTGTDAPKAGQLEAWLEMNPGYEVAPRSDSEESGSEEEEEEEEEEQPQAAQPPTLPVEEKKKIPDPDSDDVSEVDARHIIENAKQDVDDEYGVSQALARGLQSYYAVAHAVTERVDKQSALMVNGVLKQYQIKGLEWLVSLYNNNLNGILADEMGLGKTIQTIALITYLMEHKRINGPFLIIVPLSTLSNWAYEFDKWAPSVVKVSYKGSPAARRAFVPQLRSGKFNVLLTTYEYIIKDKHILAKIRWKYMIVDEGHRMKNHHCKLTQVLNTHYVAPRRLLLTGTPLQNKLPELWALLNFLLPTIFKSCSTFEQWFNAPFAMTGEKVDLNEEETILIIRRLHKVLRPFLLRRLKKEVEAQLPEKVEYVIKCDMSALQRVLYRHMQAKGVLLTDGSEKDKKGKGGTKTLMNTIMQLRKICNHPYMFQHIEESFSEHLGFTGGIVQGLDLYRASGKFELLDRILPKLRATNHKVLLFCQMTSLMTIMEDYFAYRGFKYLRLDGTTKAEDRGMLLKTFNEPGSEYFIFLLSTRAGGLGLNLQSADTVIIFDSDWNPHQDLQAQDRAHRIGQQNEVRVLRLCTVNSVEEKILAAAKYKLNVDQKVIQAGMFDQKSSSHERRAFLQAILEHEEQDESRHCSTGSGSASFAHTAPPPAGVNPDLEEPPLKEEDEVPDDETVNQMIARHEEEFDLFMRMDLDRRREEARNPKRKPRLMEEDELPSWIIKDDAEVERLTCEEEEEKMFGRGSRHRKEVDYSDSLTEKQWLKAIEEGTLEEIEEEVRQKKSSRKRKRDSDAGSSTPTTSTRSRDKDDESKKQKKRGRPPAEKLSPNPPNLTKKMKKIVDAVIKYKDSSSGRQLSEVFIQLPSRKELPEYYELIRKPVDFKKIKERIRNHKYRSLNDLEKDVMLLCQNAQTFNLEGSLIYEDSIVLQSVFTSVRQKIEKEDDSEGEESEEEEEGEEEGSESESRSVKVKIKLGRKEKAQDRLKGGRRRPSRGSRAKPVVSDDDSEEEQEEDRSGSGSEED

`Nc1nnc(-c2ccccc2O)cc1N1CCCN(c2ccnc(C#CCn3ccn4nccc4c3=O)n2)CC1` [Compound P-109, 5-(3-(4-(4-(3-amino-6-(2-hydroxyphenyl)pyridazin-4-yl)-1,4-diazepan-1-yl)pyrimidin-2-yl)prop-2-yn-1-yl)pyrazolo[1,5-a]pyrazin-4(5H)-one]: the DC50 was 0.05 to 0.5 µM in assay [1] and under 0.05 µM in assay [2]. In assay [1] (@ 1 μM), this compound came in with an inhibition at 1 µM of 30 to 70%. Further, the “SMARCA2 % Degradation @ 1 μM” value in assay [2] (@ 1 μM) is reported as “+++ (+++=>70%)”.
Consider `C[C@@H]1CCN(c2cc(-c3ccccc3O)nnc2N)CCN1c1ccnc(C#CCN2CCC3(CC2)COC3)n1` [Compound P-199, o-{5-[(R)-5-methyl-4-(2-{3-(2-oxa-7-aza-7-spiro[3.5]nonyl)-1-propynyl}-4-pyrimidinyl)-1,4-diazepan-1-y1]-6-amino-3-pyridazinyl}phenol], for which the DC50 in assay [1] and in assay [2] was 0.05 to 0.5 µM in each case. For the same compound, the inhibition at 1 µM in assay [1] (@ 1 μM) was in the range of 30 to 70%. The “SMARCA2 % Degradation @ 1 μM” value in assay [2] (@ 1 μM) was “+++ (+++=>70%)”.
Consider `Nc1nnc(-c2ccccc2O)cc1N1CCN(c2ccnc(C#CCCCNC(=O)c3cc4ncccn4n3)n2)CC1` [Compound P-92, N-(5-(4-(4-(3-amino-6-(2-hydroxyphenyl)pyridazin-4-yl)piperazin-1-yl)pyrimidin-2-yl)pent-4-yn-1-yl)pyrazolo[1,5-a]pyrimidinc-2-carboxamidc], for which the DC50 in assay [1] and in assay [2] was 0.05 to 0.5 µM in each case. In assay [1] (@ 1 μM), this compound showed an inhibition at 1 µM of 30 to 70%. In assay [2] (@ 1 μM), the “SMARCA2 % Degradation @ 1 μM” value is listed as “+ (+=<30%)”.
`Nc1nnc(-c2ccccc2O)cc1N1CC2CCC(C1)N2c1ccnc(C#CCn2cncn2)n1` [Compound P-289, 0-[6-amino-5-(8-{2-[3-(1H-1,2,4-triazol-1-yl)-1-propynyl]-4-pyrimidinyl}-3,8-diazabicyclo[3.2.1]oct-3-yl)-3-pyridazinyl]phenol]: the DC50 in assay [1] and in assay [2] was 0.05 to 0.5 µM in each case. The compound further displayed an inhibition at 1 µM in assay [1] (@ 1 μM) of 30 to 70%. In assay [2] (@ 1 μM), the “SMARCA2 % Degradation @ 1 μM” value is recorded as “++ (++=30-70%)”.
As for `C[C@@H]1CCN(c2cc(-c3ccccc3O)nnc2N)CCN1c1ccnc(C#C[C@@H](C)O)c1` [Compound P-401, 0-{5-[(R)-4-{2-[(R)-3-hydroxy-1-butynyl]-4-pyridyl}-5-methyl-1,4-diazepan-1-yl]-6-amino-3-pyridazinyl}phenol], the DC50 in assay [1] and in assay [2] was 0.05 to 0.5 µM throughout. Moreover, the inhibition at 1 µM in assay [1] (1 μM) was over 70%. Further, in assay [2] (1 μM), the “SMARCA2 % Degradation @ 1 μM” value was “+++ (+++=>70%)”.
For `Cn1ccc(NCC#Cc2nccc(N3CCCN(c4cc(-c5ccccc5O)nnc4N)CC3)n2)n1` [Compound P-21, 2-(6-amino-5-(4-(2-(3-((1-methyl-1H-pyrazol-3-yl)amino)prop-1-yn-1-yl)pyrimidin-4-yl)-1,4-diazepan-1-yl)pyridazin-3-yl)phenol], the half-maximal degradation concentration (DC50) in assay [1] and in assay [2] was 0.05 to 0.5 µM in each case. The inhibition at 1 µM in assay [1] (@ 1 μM) lay in the range of 30 to 70%. In addition, the “SMARCA2 % Degradation @ 1 μM” value in assay [2] (@ 1 μM) is recorded as “++ (++=30-70%)”.
Regarding `Nc1nnc(-c2ccccc2O)cc1N1CC2CCC(C1)N2c1ccnc(C#CCN2CC3CC2C3)n1` [Compound P-188, o-{6-amino-5-[8-(2-{3-(2-azabicyclo[2.1.1]hex-2-yl)-1-propynyl}-4-pyrimidinyl)-3,8-diazabicyclo[3.2.1]oct-3-yl]-3-pyridazinyl}phenol], the DC50 in assay [1] and in assay [2] was under 0.05 µM throughout. Moreover, the inhibition at 1 µM in assay [1] (@ 1 μM) is 30 to 70%. Further, the “SMARCA2 % Degradation @ 1 μM” value in assay [2] (@ 1 μM) is “+++ (+++=>70%)”.
As for `CC(C)(C)OC(=O)NC1CCN(CC#Cc2nccc(N3CCCN(c4cc(-c5ccccc5O)nnc4N)CC3)n2)CC1` [Compound P-142, tert-butyl (1-(3-(4-(4-(3-amino-6-(2-hydroxyphenyl)pyridazin-4-yl)-1,4-diazepan-1-yl)pyrimidin-2-yl)prop-2-yn-1-yl)piperidin-4-yl)carbamate], the DC50 in assay [1] and in assay [2] was 0.05 to 0.5 µM throughout. The same compound showed an inhibition at 1 µM in assay [1] (@ 1 μM) of over 70%. Besides, the “SMARCA2 % Degradation @ 1 μM” value in assay [2] (@ 1 μM) was “+++ (+++=>70%)”.
